The values that follow come from paper PMC9945182 (Chemical Research in Toxicology, 2023).

Read-outs that look alike come from different tables or passages of the source.

In one data set the target is T1, CYP2A6 (Homo sapiens, UniProt P11509).
T1 sequence (P11509 1-494): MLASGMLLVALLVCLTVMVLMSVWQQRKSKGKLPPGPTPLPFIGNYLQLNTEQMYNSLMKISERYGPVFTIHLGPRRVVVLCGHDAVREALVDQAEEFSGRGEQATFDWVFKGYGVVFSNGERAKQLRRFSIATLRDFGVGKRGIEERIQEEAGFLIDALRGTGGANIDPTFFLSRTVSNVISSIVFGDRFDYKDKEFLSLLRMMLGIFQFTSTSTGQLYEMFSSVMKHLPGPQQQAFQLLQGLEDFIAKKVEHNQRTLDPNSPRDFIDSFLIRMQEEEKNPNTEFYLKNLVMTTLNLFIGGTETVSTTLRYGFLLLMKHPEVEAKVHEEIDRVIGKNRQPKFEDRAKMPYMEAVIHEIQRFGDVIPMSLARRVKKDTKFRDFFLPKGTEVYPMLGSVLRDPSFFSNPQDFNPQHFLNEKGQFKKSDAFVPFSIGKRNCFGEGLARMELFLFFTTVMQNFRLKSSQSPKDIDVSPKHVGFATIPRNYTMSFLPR
It is filed as biochemical. The note with it: 10 μM inhibitor; cotinine substrate; CYP2A6 microsomes.

Another data set addresses CYP2C19 (Homo sapiens, UniProt P33261). It is filed as biochemical. To be noted: 10 μM inhibitor; cotinine substrate; CYP2C19 microsomes.
Another data set has as its target T2, UGT2B10 (Homo sapiens, UniProt P36537).
T2 sequence (P36537 24-528): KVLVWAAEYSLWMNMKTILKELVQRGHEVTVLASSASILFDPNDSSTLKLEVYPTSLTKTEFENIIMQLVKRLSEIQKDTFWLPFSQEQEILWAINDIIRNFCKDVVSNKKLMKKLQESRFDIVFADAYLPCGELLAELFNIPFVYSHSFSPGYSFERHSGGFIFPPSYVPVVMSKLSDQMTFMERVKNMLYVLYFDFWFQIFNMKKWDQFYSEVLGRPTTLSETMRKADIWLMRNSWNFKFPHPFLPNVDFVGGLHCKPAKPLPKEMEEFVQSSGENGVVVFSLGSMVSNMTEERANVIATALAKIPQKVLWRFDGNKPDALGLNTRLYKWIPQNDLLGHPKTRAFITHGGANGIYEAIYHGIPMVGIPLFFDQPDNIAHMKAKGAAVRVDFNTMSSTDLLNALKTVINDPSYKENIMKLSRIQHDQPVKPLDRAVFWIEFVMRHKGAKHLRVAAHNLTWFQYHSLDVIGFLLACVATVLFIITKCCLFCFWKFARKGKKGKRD
The note with it: previous studies; cited from earlier work.

For the next data set, the target named is T3, UGT2B7 (Homo sapiens, UniProt P16662).
T3 sequence (P16662 24-529): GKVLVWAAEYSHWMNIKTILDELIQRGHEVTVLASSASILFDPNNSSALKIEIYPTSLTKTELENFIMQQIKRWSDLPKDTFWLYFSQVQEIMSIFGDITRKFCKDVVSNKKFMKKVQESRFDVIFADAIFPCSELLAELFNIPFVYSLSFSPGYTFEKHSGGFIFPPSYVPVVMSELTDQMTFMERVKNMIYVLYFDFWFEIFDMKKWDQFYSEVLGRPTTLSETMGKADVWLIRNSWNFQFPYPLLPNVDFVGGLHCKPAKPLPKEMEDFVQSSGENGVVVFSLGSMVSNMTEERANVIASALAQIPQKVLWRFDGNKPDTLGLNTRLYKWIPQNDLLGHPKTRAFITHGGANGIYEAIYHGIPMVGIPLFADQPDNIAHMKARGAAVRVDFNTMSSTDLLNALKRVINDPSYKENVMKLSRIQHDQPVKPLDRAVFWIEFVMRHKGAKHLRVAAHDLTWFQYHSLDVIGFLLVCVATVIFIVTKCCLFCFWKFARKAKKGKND
The format is biochemical. To be noted: for decrease in 3HC-Gluc formation: 3HC 30 mM, UGT2B7 microsomes.

The conditions of data set [1]: to protein and labware; cited from earlier work.
For another data set, the system named is cigarette smokers. To be noted: single 800 mg oral dose, compared with a placebo group; cited from earlier work.
The test system of data set [2] is human liver microsomes (HLM). Nature of the data set: Inhibition of 3HC to 3HC-Gluc formation in human liver microsomes. The format is biochemical. The note with it: up to 100 μM CBD.

Chain of CYP2C19 (P33261 whole entry): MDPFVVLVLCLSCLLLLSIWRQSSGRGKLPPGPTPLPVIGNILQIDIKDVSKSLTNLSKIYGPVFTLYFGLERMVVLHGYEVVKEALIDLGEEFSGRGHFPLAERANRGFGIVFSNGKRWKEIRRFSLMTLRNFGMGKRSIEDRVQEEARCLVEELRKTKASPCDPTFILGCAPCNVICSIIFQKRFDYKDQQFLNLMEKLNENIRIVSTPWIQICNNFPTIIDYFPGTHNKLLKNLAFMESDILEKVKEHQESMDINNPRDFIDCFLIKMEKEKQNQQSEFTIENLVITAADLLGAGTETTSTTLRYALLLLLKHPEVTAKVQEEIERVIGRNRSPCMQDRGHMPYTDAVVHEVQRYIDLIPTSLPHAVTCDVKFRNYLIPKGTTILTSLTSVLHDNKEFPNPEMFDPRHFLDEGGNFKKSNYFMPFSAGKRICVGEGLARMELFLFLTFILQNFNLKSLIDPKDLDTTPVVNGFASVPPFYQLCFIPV

With `C=C(C)[C@@H]1CCC(CO)=C[C@H]1c1c(O)cc(CCCCC)cc1O` [7-OH-CBD, 7-hydroxy-cannabidiol], the “inhibition of COX formation” value against CYP2A6 is on record as 40%; against CYP2C19, 15%.

Take `C=C(C)[C@@H]1CCC(C)=C[C@H]1c1c(O)cc(CCCCC)cc1O` [CBD, cannabidiol]: on UGT2B10, the “inhibition of nicotine-Gluc formation by UGT2B10” value is listed as “does not inhibit”. Further, the “decrease in 3HC-Gluc formation” value is reported as 35% at UGT2B7 (1 μM CBD) and 55% on UGT2B7 (10 μM CBD). In addition, at UGT2B7 (human, microsomes from UGT2B7-overexpressing HEK293 cells, pH 7.4, probe 3HC (30 mM), 3HC-Gluc formation), the inhibition at 100 μM was more than 50%. In data set [1], the nonspecific binding is 70–90%. In addition, in the data set on cigarette smokers, the “effect on cigarette cues” value was “reduced the salience and pleasantness of cigarette cues”. In addition, in data set [2], the “inhibition of 3HC-Gluc formation” value is recorded as less than 45%.
